Reference: US20230227427A1, “IL-17A MODULATORS” (SANOFI, priority 2010, published 2023)
Like-named read-outs stand apart in the source and are kept apart here.

Molecular target: T1, human recombinant IL-17A (Homo sapiens, UniProt Q16552)
T1 construct: purchased R&D Systems 7955-IL/CF
T1 sequence (Q16552 24-155): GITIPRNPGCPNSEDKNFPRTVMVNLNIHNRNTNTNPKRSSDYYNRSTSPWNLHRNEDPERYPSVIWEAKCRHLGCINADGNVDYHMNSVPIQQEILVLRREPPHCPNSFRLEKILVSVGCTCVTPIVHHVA
Test: IL-17A AlphaLISA assay (block binding of IL-17A to its receptor IL-17RA)
Details: read-out: AlphaLISA pIC50 (converted)
Method: The ability of the compounds to block binding of IL-17A to its receptor, IL-17RA, was analysed in a competition assay using AlphaLISA technology (Perkin Elmer). The assay is a bead based AlphaLISA where the IL-17RA is captured on the acceptor bead via an Fc tag and IL-17A is captured on the streptavidin donor bead via a biotinylated anti-IL17A antibody.
Assay buffer was prepared by adding 0.05% Tween-20 (v/v) and 0.1% BSA to Phosphate Buffered Saline (PBS). The assay was carried out in 384-well white low volume plates (Corning 4512). 10 µL of a 7.5 nM stock of human recombinant IL-17A (R&D Systems 7955-IL/CF) diluted in assay buffer was dispensed into the assay plate and compounds or DMSO vehicle control were added in a volume of 75 nL using a D300 dispenser (Hewlett Packard). The compounds were pre-incubated with the IL-17A for 24 h at room temperature (or for 30 min, where indicated by * in Table A below) prior to addition of 5 μL of a 5 nM stock of human recombinant IL-17RA/Fc chimera (R&D Systems 177-IR-100) diluted in assay buffer. The IL-17A was incubated with the receptor for a further 90 minutes at room temperature before addition of 5 μL of a mixture of anti-human Fc IgG acceptor beads (75 μg/mL, Perkin Elmer AL103C) and anti-IL-17A biotin conjugated antibody (5 nM, Enzo Life Sciences, ENZ-ABS278-0100) in assay buffer. After a further 30 min incubation at room temperature, 5 μL of streptavidin donor beads ([…], Perkin Elmer 6760002S) were added and the plate was incubated for 3 h in the dark.
The luminescence signal was measured using an Enspire plate reader (Perkin Elmer) with excitation at 680 nm and emission at 615 nm. Data were analysed using GraphPad Prism and fitted to a 4-parameter logistic equation. The IC50 values were calculated using the DMSO vehicle as the negative control and a high concentration (6 μM) of a reference IL-17A inhibitor as the positive control.
Activity of the Example compounds is reported as a PIC50 value in Table A.

[1] = compounds pre-incubated with the IL-17A for 24 h at room temperature
[2] = compounds pre-incubated with the IL-17A for 30 min (indicated by * in Table A)

SMILES	IC50 [1]	IC50 [2]
CCn1nccc1C(=O)N[C@H](C(=O)Nc1ccc(-c2c[nH]nc2C)c(F)c1)C(c1ccccc1)c1ccccc1 [Example 59, (S)-1-ethyl-N-(1-((3-fluoro-4-(3-methyl-1H-pyrazol-4-yl)phenyl)amino)-1-oxo-3,3-diphenylpropan-2-yl)-1H-pyrazole-5-carboxamide]	0.1 µM	–
Cc1cc(=O)[nH]cc1-c1ccc(NC(=O)[C@@H](NC(=O)c2ccnn2C)C(c2ccccc2)c2ccccc2)cc1 [Example 50, (S)-1-methyl-N-(1-((4-(4-methyl-6-oxo-1,6-dihydropyridin-3-yl)phenyl)amino)-1-oxo-3,3-diphenylpropan-2-yl)-1H-pyrazole-5-carboxamide]	0.0398 µM	–
Cc1ncc(C)c(-c2ccc(NC(=O)[C@@H](NC(=O)c3ccnn3C)C(c3ccccc3)c3ccccc3)cc2)n1 [Example 37, (S)—N-(1-((4-(2,5-dimethylpyrimidin-4-yl)phenyl)amino)-1-oxo-3,3-diphenylpropan-2-yl)-1-methyl-1H-pyrazole-5-carboxamide]	0.0398 µM	–
Cc1cc(=O)n(C)cc1-c1ccc(NC(=O)[C@@H](NC(=O)c2ccnn2C)C(c2ccccc2)c2ccccc2)cc1 [Example 12, (S)—N-(1-((4-(1,4-dimethyl-6-oxo-1,6-dihydropyridin-3-yl)phenyl)amino)-1-oxo-3,3-diphenylpropan-2-yl)-1-methyl-1H-pyrazole-5-carboxamide]	0.01 µM	–
Cn1nccc1C(=O)N[C@H](C(=O)Nc1ccc(-c2cn(C)c(=O)c3[nH]ncc23)c(F)c1)C(c1ccccc1)c1ccccc1 [Example 75, (S)—N-(1-((3-fluoro-4-(6-methyl-7-oxo-6,7-dihydro-1H-pyrazolo[3,4-c]pyridin-4-yl)phenyl)amino)-1-oxo-3,3-diphenylpropan-2-yl)-1-methyl-1H-pyrazole-5-carboxamide]	0.0316 µM	–
CCc1nocc1C(=O)N[C@H](C(=O)Nc1ccc(-c2c(C)noc2C)cn1)C1CCCCCC1 [Example 124, (S)—N-(1-Cycloheptyl-2-((5-(3,5-dimethylisoxazol-4-yl)pyridin-2-yl)amino)-2-oxoethyl)-3-ethylisoxazole-4-carboxamide]	–	0.0398 µM
Cc1c(-c2ccc(NC(=O)[C@@H](NC(=O)c3ccnn3C)C(c3ccccc3)c3ccccc3)cc2)ccc(=O)n1C [Example 13, (S)—N-(1-((4-(1,2-dimethyl-6-oxo-1,6-dihydropyridin-3-yl)phenyl)amino)-1-oxo-3,3-diphenylpropan-2-yl)-1-methyl-1H-pyrazole-5-carboxamide]	0.00794 µM	–
Cc1nn(Cc2ccccc2)c(C)c1-c1ccc(NC(=O)[C@@H](NC(=O)c2ccnn2C)C(c2ccccc2)c2ccccc2)cc1 [Example 31, (S)—N-(1-((4-(1-benzyl-3,5-dimethyl-1H-pyrazol-4-yl)phenyl)amino)-1-oxo-3,3-diphenylpropan-2-yl)-1-methyl-1H-pyrazole-5-carboxamide]	0.631 µM	–
Cn1nccc1C(=O)N[C@H](C(=O)Nc1ccc(-c2ccc(=O)[nH]c2)cc1)C(c1ccccc1)c1ccccc1 [Example 49, (S)-1-methyl-N-(1-oxo-1-((4-(6-oxo-1,6-dihydropyridin-3-yl)phenyl)amino)-3,3-diphenylpropan-2-yl)-1H-pyrazole-5-carboxamide]	0.1 µM	–
Cn1nccc1C(=O)N[C@H](C(=O)Nc1ccc(-c2ccnc3[nH]ccc23)cc1)C(c1ccccc1)c1ccccc1 [Example 21, (S)—N-(1-((4-(1H-pyrrolo[2,3-b]pyridin-4-yl)phenyl)amino)-1-oxo-3,3-diphenylpropan-2-yl)-1-methyl-1H-pyrazole-5-carboxamide]	0.0398 µM	–
Cc1nccc(-c2ccc(NC(=O)[C@@H](NC(=O)c3ccnn3C)C(c3ccccc3)c3ccccc3)cc2)c1C [Example 1, (S)—N-(1-((4-(2,3-dimethylpyridin-4-yl)phenyl)amino)-1-oxo-3,3-diphenylpropan-2-yl)-1-methyl-1H-pyrazole-5-carboxamide]	0.0501 µM	–
Cc1n[nH]c(C)c1-c1ccc(NC(=O)[C@@H](NC(=O)c2cnnn2C)C2CCCCCC2)cn1 [Example 209, (S)—N-(1-cycloheptyl-2-((6-(3,5-dimethyl-1H-pyrazol-4-yl)pyridin-3-yl)amino)-2-oxoethyl)-1-methyl-1H-1,2,3-triazole-5-carboxamide]	–	0.794 µM
CCc1nocc1C(=O)N[C@H](C(=O)Nc1ccc(-c2c(C)cnn2C)cn1)C1CCCCC1 [Example 178, (S)—N-(1-cyclohexyl-2-((5-(1,4-dimethyl-1H-pyrazol-5-yl)pyridin-2-yl)amino)-2-oxoethyl)-3-ethylisoxazole-4-carboxamide]	–	0.0794 µM
Cn1nccc1C(=O)N[C@H](C(=O)Nc1ccc(-c2ncnc3c2CCN3)cc1)C(c1ccccc1)c1ccccc1 [Example 40, (S)—N-(1-((4-(6,7-dihydro-5H-pyrrolo[2,3-d]pyrimidin-4-yl)phenyl)amino)-1-oxo-3,3-diphenylpropan-2-yl)-1-methyl-1H-pyrazole-5-carboxamide]	0.0631 µM	–

More lines, now with the values ahead:

IC50 [1]	IC50 [2]	SMILES
–	0.398 µM	COCc1onc(C)c1-c1ccc(NC(=O)[C@@H](NC(=O)c2ccnn2C)C2CCCCCC2)nc1 [Example 150, (S)—N-(1-cycloheptyl-2-((5-(5-(methoxymethyl)-3-methylisoxazol-4-yl)pyridin-2-yl)amino)-2-oxoethyl)-1-methyl-1H-pyrazole-5-carboxamide]
–	0.0794 µM	CCc1nocc1C(=O)N[C@H](C(=O)Nc1ccc(-c2c(C)noc2C)cn1)[C@H]1CC[C@H](C)CC1 [Example 111, N—((S)-2-((5-(3,5-dimethylisoxazol-4-yl)pyridin-2-yl)amino)-1-((1r,4S)-4-methylcyclohexyl)-2-oxoethyl)-3-ethylisoxazole-4-carboxamide]
–	0.158 µM	CCn1nccc1C(=O)N[C@H](C(=O)Nc1ccc(-c2c(C)noc2C)cn1)C1CCCCC1 [Example 118, (S)—N-(1-Cyclohexyl-2-((5-(3,5-dimethylisoxazol-4-yl)pyridin-2-yl)amino)-2-oxoethyl)-1-ethyl-1H-pyrazole-5-carboxamide]
–	0.398 µM	COCc1noc(C)c1-c1ccc(NC(=O)[C@@H](NC(=O)c2ccnn2C)[C@H]2CC[C@H](C)CC2)nc1 [Example 142, N—((S)-2-((5-(3-(methoxymethyl)-5-methylisoxazol-4-yl)pyridin-2-yl)amino)-1-((1r,4S)-4-methylcyclohexyl)-2-oxoethyl)-1-methyl-1H-pyrazole-5-carboxamide]
–	0.2 µM	Cc1cncc(C)c1-c1ccc(NC(=O)[C@@H](NC(=O)c2ccnn2C)C2CCC(C)(C)CC2)cc1 (single isomer, unassigned) [Example 100]
0.0631 µM	–	Cc1c(-c2ccc(NC(=O)[C@@H](NC(=O)c3ccnn3C)[C@H]3CC[C@H](C)CC3)cc2F)ccc(=O)n1C [Example 83, N—((S)-2-((4-(1,2-Dimethyl-6-oxo-1,6-dihydropyridin-3-yl)-3-fluorophenyl)amino)-1-((1r,4S)-4-methylcyclohexyl)-2-oxoethyl)-1-methyl-1H-pyrazole-5-carboxamide]
0.0501 µM	–	Cn1nccc1C(=O)N[C@H](C(=O)Nc1ccc(C2CCOCC2)cc1)[C@H]1CC[C@H](C)CC1 [Example 93, 1-Methyl-N—((S)-1-((1r,4S)-4-methylcyclohexyl)-2-oxo-2-((4-(tetrahydro-2H-pyran-4-yl)phenyl)amino)ethyl)-1H-pyrazole-5-carboxamide]
–	0.0794 µM	CCc1nocc1C(=O)N[C@H](C(=O)Nc1ccc(-c2c(C)noc2C)nc1)[C@H]1CC[C@H](C)CC1 [Example 203, N—((S)-2-((6-(3,5-dimethylisoxazol-4-yl)pyridin-3-yl)amino)-1-((1r,4S)-4-methylcyclohexyl)-2-oxoethyl)-3-ethylisoxazole-4-carboxamide]
–	0.126 µM	Cc1noc(C)c1-c1ccc(NC(=O)[C@@H](NC(=O)c2ccnn2C)C2CCCCCC2)nc1 [Example 115, (S)—N-(1-Cycloheptyl-2-((5-(3,5-dimethylisoxazol-4-yl)pyridin-2-yl)amino)-2-oxoethyl)-1-methyl-1H-pyrazole-5-carboxamide]
–	0.0794 µM	Cc1noc(C)c1-c1ccc(NC(=O)[C@@H](NC(=O)c2ccnn2C(C)C)[C@H]2CC[C@H](C)CC2)nc1 [Example 110, N—((S)-2-((5-(3,5-dimethylisoxazol-4-yl)pyridin-2-yl)amino)-1-((1r,4S)-4-methylcyclohexyl)-2-oxoethyl)-1-isopropyl-1H-pyrazole-5-carboxamide]
